Results: patent US20140066365A1, “USE OF CALIXARENES ASSOCIATED WITH AN ANTIBIOTIC IN THE TREATMENT OF BACTERIAL INFECTIONS” (priority 2011, published 2014)
In brackets after ≈: the same amount, converted by molar mass. Like-named read-outs stand apart in the source and are kept apart here.

Columns and labels:
[1] = tested on: EcR2: Cephalosporinase-Hyperproducing Strain of Escherichia coli; experiment: Antibiogram by the disk diffusion technique; format: cell-based
Description: The bacterial and antibiogramidentification is carried out by the VITEK 1 system (bioMérieux) and by the disk diffusion technique

[2] = tested on: EcR1: Penicillinase-Producing Escherichia coli without Associated Resistance; experiment: Antibiogram by the disk diffusion technique; format: cell-based; conditions: Table A1
Description: (§1) 5.1 EcR1: Penicillinase-Producing Escherichia coli without Associated Resistance The bacterial and antibiogramidentification is carried out by the VITEK 2 system (bioMérieux) and by the disk diffusion technique.

[3] = tested on: EcR1: Penicillinase-Producing Escherichia coli without Associated Resistance; experiment: Antibiogram, MIC by the VITEK 2 system; format: cell-based; conditions: for MIC: Escherichia coli
Description: as §1

[4] = tested on: cephalosporinase-hyperproducing strain of Escherichia coli (EcR2); experiment: MIC of the compounds used alone, microdilution in a liquid medium (CLSI); format: cell-based; conditions: Escherichia coli, antibiotic alone (second value of cell), read-out: Initial MICs
Description: (§2) The MICs of the antibiotics were previously defined for each strain, by the method of microdilution in a liquid medium (CLSI (Clinical and Laboratory Standards Institute), 2003).

[5] = tested on: penicillinase-producing strain of Escherichia coli without associated resistance (EcR1); experiment: as above; format: cell-based; conditions: Escherichia coli, antibiotic alone (second value of cell), read-out: Initial MICs
Description: as §2

[6] = tested on: ESBL-producing strain of Escherichia coli, having an associated resistance to the aminoglycosides (EcR3); experiment: as above; format: cell-based; conditions: Escherichia coli, antibiotic alone (second value of cell), read-out: Initial MICs
Description: as §2

[7] = tested on: Escherichia coli strain ATCC 25922 (wild type); experiment: as above; format: cell-based; conditions: Escherichia coli
Description: as §2

[8] = tested on: EcR3: ESBL-Producing Escherichia coli; experiment: Antibiogram by the disk diffusion technique; format: cell-based
Description: The bacterial and antibiogramidentification is carried out by the VITEK 2 system (bioMerieux) and by the disk diffusion technique

[9] = tested on: Pseudomonas aeruginosa strain ATCC 27853 (wild type); experiment: MIC of the compounds used alone, microdilution in a liquid medium (CLSI); format: cell-based; conditions: Pseudomonas aeruginosa
Description: as §2

[10] = tested on: Staphylococcus aureus strain ATCC 29213 (wild type); experiment: as above; format: cell-based; conditions: Staphylococcus aureus
Description: as §2

[11] = tested on: SaR3: Meticillin-Resistant Staphylococcus aureus; experiment: Antibiogram by the disk diffusion technique; format: cell-based; conditions: for CA-SFM Interpretation: Cd CA-SFM 2011; for CLSI Interpretation: Cd CLSI 2011; for EUCAST Interpretation: Cd EUCAST 2011; for Diameter: Table E1; for Results: Table E1, against Dmin Dmax; for diameter in mm: Table E2
Description: (§3) The bacterial and antibiogramidentification is carried out by the VITEK 2 system (bioMérieux) and by the disk diffusion technique

[12] = tested on: SaR4: Meticillin-Resistant Staphylococcus aureus; experiment: Antibiogram, MIC by the VITEK 2 system; format: cell-based; conditions: for CA-SFM Interpretation / CLSI Interpretation / EUCAST Interpretation: from MIC; for CA-SFM Interpretation: Cc CA-SFM 2011; for CLSI Interpretation: Cc CLSI 2011; for EUCAST Interpretation: Cc EUCAST 2011; for MIC: Staphylococcus aureus
Description: as §3

[13] = MIC of the compounds used alone, microdilution in a liquid medium (CLSI); format: cell-based, Staphylococcus aureus; conditions: Staphylococcus aureus, MRSA
Description: as §2

[14] = tested on: MRSA strain without associated resistance (SaR1); experiment: as above; format: cell-based, Staphylococcus aureus; conditions: Staphylococcus aureus, MRSA
Description: as §2

[15] = tested on: MRSA strain having a resistance to the aminoglycosides and fluoroquinolones (SaR3); experiment: as above; format: cell-based, Staphylococcus aureus; conditions: Staphylococcus aureus, MRSA
Description: as §2

[16] = tested on: SaR1: Meticillin-Resistant Staphylococcus aureus without Associated Resistance; experiment: Antibiogram, inhibition diameter (Table D1); format: cell-based; conditions: for Results: from diameter, against Dmin Dmax
Description: (§4) The bacterial and antibiogramidentification is carried out by the VITEK 2 system (bioMérieux)

[17] = tested on: SaR1: Meticillin-Resistant Staphylococcus aureus without Associated Resistance; experiment: Antibiogram, MIC by the VITEK 2 system; format: cell-based; conditions: for CA-SFM Interpretation: Cc CA-SFM 2011; for CLSI Interpretation: Cc CLSI 2011; for EUCAST Interpretation: Cc EUCAST 2011; for Results: from MIC
Description: as §4

[18] = antibiotic alone (second value of cell), SaR4, read-out: MIC
[19] = antibiotic alone (second value of cell), SaR1, read-out: MIC
[20] = antibiotic alone (second value of cell), SaR3, read-out: MIC
[21] = ATCC29213, antibiotic alone (second value of cell), S. aureus ATCC 29213, read-out: Initial MICs
[22] = Staphylococcus aureus, SaR1, Table D1, read-out: MIC

CO/N=C(\C(=O)N[C@@H]1C(=O)N2C(C(=O)O)=C(COC(C)=O)CS[C@H]12)c1csc(N)n1 [Cefotaxime]
Diameter ([1]; EcR2, disk diffusion, Table B1): 24
Results ([1]; EcR2, rows that print a diameter, Table B1): Intermediate
Diameter ([1]; EcR2, Table B2, diameters): 24 mm
CA-SFM Interpretation ([1]; EcR2, from diameter, CA-SFM 2011): Intermediate
CLSI Interpretation ([1]; EcR2, from diameter, CLSI 2011): Intermediate
EUCAST Interpretation ([1]; EcR2, from diameter, EUCAST 2011): Resistant
Diameter ([2]; EcR1, disk diffusion): 30 mm
Results ([2]; EcR1, interpretation of the diameter against Dmin Dmax): Susceptible
CA-SFM Interpretation ([3]; EcR1, MIC against Cc CA-SFM 2011): Susceptible
CLSI Interpretation ([3]; EcR1, MIC against Cc CLSI 2011): Susceptible
EUCAST Interpretation ([3]; EcR1, MIC against Cc EUCAST 2011): Susceptible
Results ([3]; EcR1, interpretation of the MIC, Table A1): Susceptible
MIC ([3]; EcR1, Table A2, read-out: MIC mg/L (diameter in mm)): ≤ 1 mg/L
MIC ([3]; EcR1, VITEK 2, Table A1, read-out: MIC): ≤ 1 mg/L
MIC [4]: 4 µg/mL
MIC [5]: 0.06 µg/mL
MIC [6]: 128 µg/mL
MIC ([7]; ATCC25922, antibiotic alone (second value of cell), E. coli ATCC 25922, read-out: Initial MICs): 0.06 mg/L
CA-SFM Interpretation ([8]; Cd CA-SFM 2011): Resistant
CLSI Interpretation ([8]; Cd CLSI 2011): Resistant
EUCAST Interpretation ([8]; Cd EUCAST 2011): Intermediate
Diameter ([8]; Table C1): 19 mm
Results ([8]; Table C1, against Dmin Dmax): Intermediate
diameter in mm ([8]; Table C2): 19 mm

[H]/N=C(\N/C(=N/[H])NCCCCCCNC(=N)NC(=N)Nc1ccc(Cl)cc1)Nc1ccc(Cl)cc1 [Chlorhexidine]
MIC ([9]; ATCC27853, antiseptic alone, P. aeruginosa ATCC 27853, read-out: Initial MICs (mg/L), antiseptic (ATS)): 4 mg/L
MIC ([10]; ATCC29213, antiseptic alone, S. aureus ATCC 29213, read-out: Initial MICs (mg/L), antiseptic (ATS)): < 1 mg/L
MIC ([7]; ATCC25922, antiseptic alone, E. coli ATCC 25922, read-out: Initial MICs (mg/L), antiseptic (ATS)): < 1 mg/L

CC[C@H]1OC(=O)[C@H](C)[C@@H](O[C@H]2C[C@@](C)(OC)[C@@H](O)[C@H](C)O2)[C@H](C)[C@@H](O[C@@H]2O[C@H](C)C[C@H](N(C)C)[C@H]2O)[C@](C)(O)C[C@@H](C)C(=O)[C@H](C)[C@@H](O)[C@]1(C)O [Erythromycin]
CA-SFM Interpretation [11]: Susceptible
CLSI Interpretation [11]: Susceptible
EUCAST Interpretation [11]: Susceptible
Diameter [11]: 25 mm
Results [11]: Susceptible
diameter in mm [11]: 25 mm
Results ([12]; SaR4, Table F1, MIC): Resistant
CA-SFM Interpretation ([12]; SaR4): Resistant
CLSI Interpretation ([12]; SaR4): Resistant
EUCAST Interpretation ([12]; SaR4): Resistant
MIC ([12]; SaR4, Table F1, read-out: MIC): ≥ 8 mg/L
MIC ([12]; SaR4, Table F2, MIC, read-out: MIC): ≥ 8 mg/L
MIC [13, 18]: > 32 µg/mL
MIC [14, 19]: 0.5 µg/mL
MIC [15, 20]: 0.5 µg/mL
Diameter [16]: 25 mm
Results [16]: Susceptible
MIC [10, 21]: 0.5 mg/L
CA-SFM Interpretation ([17]; SaR1): Susceptible
CLSI Interpretation ([17]; SaR1): Susceptible
EUCAST Interpretation ([17]; SaR1): Susceptible
Results ([17]; SaR1, Table D1): Susceptible
MIC mg/L ([17]; SaR1, Table D2): ≦0.25 mg/L
MIC [17, 22]: ≤ 0.25 mg/L

N=C(N)c1ccc(OCCCCCCOc2ccc(C(=N)N)cc2)cc1 [Hexamidine]
MIC ([9]; ATCC27853, read-out: Initial MICs (mg/L), antiseptic (ATS)): 32 mg/L
MIC ([10]; ATCC29213, read-out: Initial MICs (mg/L), antiseptic (ATS)): < 1 mg/L
MIC ([7]; ATCC25922, read-out: Initial MICs (mg/L), antiseptic (ATS)): 8 mg/L

C[C@H]1COc2c(N3CCN(C)CC3)c(F)cc3c(=O)c(C(=O)O)cn1c23 [Levofloxacin]
MIC [13, 18]: > 32 µg/mL
MIC [14, 19]: 0.25 µg/mL
MIC [15, 20]: 8 µg/mL
MIC [10, 21]: 0.125 mg/L

CC(=O)NC[C@H]1CN(c2ccc(N3CCOCC3)c(F)c2)C(=O)O1 [Linezolid]
CA-SFM Interpretation [11]: Susceptible
CLSI Interpretation [11]: Susceptible
EUCAST Interpretation [11]: Susceptible
Diameter [11]: 26 mm
Results [11]: Susceptible
diameter in mm [11]: 26 mm
MIC [13, 18]: 2 µg/mL
MIC [14, 19]: 2 µg/mL
MIC [15, 20]: 2 µg/mL
Diameter [16]: 29 mm
Results [16]: Susceptible
MIC [10, 21]: 2 mg/L
CA-SFM Interpretation ([17]; SaR1): Susceptible
CLSI Interpretation ([17]; SaR1): Susceptible
EUCAST Interpretation ([17]; SaR1): Susceptible
Results ([17]; SaR1, Table D1): Susceptible
MIC ([17]; SaR1, Table D2): 2 mg/L (≈ 5.93 µM)
MIC [17, 22]: 2 mg/L (≈ 5.93 µM)

CN[C@H](CC(C)C)C(=O)N[C@H]1C(=O)N[C@@H](CC(N)=O)C(=O)N[C@H]2C(=O)N[C@H]3C(=O)N[C@H](C(=O)N[C@H](C(=O)O)c4cc(O)cc(O)c4-c4cc3ccc4O)[C@H](O)c3ccc(c(Cl)c3)Oc3cc2cc(c3O[C@@H]2O[C@H](CO)[C@@H](O)[C@H](O)[C@H]2O[C@H]2C[C@](C)(N)[C@H](O)[C@H](C)O2)Oc2ccc(cc2Cl)[C@H]1O [Vancomycin]
CA-SFM Interpretation [11]: Susceptible
Results [11]: Susceptible
diameter in mm [11]: 28 mm
Results ([12]; SaR4, Table F1, MIC): Susceptible
CA-SFM Interpretation ([12]; SaR4): Susceptible
CLSI Interpretation ([12]; SaR4): Susceptible
EUCAST Interpretation ([12]; SaR4): Susceptible
MIC [12]: 1 mg/L (≈ 0.69 µM)
MIC ([12]; read-out: MIC mg/L): 1 mg/L (≈ 0.69 µM)
MIC [13]: 0.25 µg/mL
MIC [14]: 0.25 µg/mL
MIC [15]: 0.25 µg/mL
Results [16]: Susceptible
MIC ([10]; ATCC29213, read-out: Initial MICs (mg/L)): 0.5 mg/L
CA-SFM Interpretation ([17]; SaR1): Susceptible
CLSI Interpretation ([17]; SaR1): Susceptible
EUCAST Interpretation ([17]; SaR1): Susceptible
Results ([17]; SaR1, Table D1): Susceptible
MIC mg/L ([17]; SaR1, Table D2): ≦1 mg/L
MIC ([17]; Staphylococcus aureus, read-out: MIC mg/L): ≤ 1 mg/L
